Experimental data reported in PMC7044277 (Nature Communications, 2020).
Where “and” joins values, the source holds several entries; their conditions need not be identical. Equal entries are not always repeated.

What was measured:
[1] = target: T1, DRD4 (D4.4 variant) wild-type (Homo sapiens, UniProt P21917); assay: Radioligand competition binding, [3H]-N-methylspiperone; settings: DRD4; [3H]-methylspiperone (0.8-1.0 nM); read-out: Ki
T1 sequence (P21917 1-419): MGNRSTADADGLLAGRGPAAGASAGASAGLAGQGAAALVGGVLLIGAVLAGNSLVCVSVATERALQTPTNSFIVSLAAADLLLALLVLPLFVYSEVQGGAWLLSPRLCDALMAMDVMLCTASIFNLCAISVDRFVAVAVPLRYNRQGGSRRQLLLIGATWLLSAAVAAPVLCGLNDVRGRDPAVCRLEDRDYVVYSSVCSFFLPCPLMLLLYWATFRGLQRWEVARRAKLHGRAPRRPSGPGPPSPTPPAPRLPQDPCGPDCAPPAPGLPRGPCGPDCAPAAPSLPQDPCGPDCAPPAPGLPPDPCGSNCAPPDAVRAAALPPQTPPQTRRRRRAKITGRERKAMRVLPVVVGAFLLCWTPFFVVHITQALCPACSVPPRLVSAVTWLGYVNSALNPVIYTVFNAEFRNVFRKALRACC

[2] = target: T2, DRD4 (D4.4 variant) (Homo sapiens, UniProt P21917); assay: β-arrestin2 recruitment (Tango); format: cell-based; settings: DRD4; Tango; read-out: EC50 ± SEM
T2 sequence (P21917 1-419): T1 sequence (P21917 1-419)

[3] = target: T3, DRD2 (D2 long receptor) (Homo sapiens, UniProt P14416); assay: Gαi/o-mediated cAMP inhibition (GloSensor split-luciferase cAMP reporter), HEK293T; format: cell-based; settings: for Response, Fig_S11b dose-response: individual replicates;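 as to all read-outs here: compounds applied 15 min at room temperature, then luciferin plus 400 nM isoproterenol to raise cAMP through endogenous β2-adrenergic receptors, luminescence read 15 min later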
[4] = target: DRD3 (Homo sapiens, UniProt P35462); assay: β-arrestin2 recruitment (Tango); format: cell-based; settings: DRD3; Tango; read-out: EC50 ± SEM
[5] = target: T2, DRD4 (D4.4 variant); assay: Gαi/o-mediated cAMP inhibition (GloSensor); format: cell-based; settings: DRD4; agonist, cAMP inhibition; read-out: EC50 ± SEM
[6] = target: T3, DRD2 (D2 long receptor); assay: β-arrestin2 recruitment (Tango), HTLA cells; format: cell-based; settings: for Response, Fig_S11c dose-response: individual replicates; as to response, Fig S11c dose-response source data: reference of the scale not given here
[7] = target: DRD3 wild-type (Homo sapiens, UniProt P35462); assay: Radioligand competition binding, [3H]-N-methylspiperone
[8] = target: DRD2 (D2 long receptor) wild-type (Homo sapiens, UniProt P14416); assay: Radioligand competition binding, [3H]-N-methylspiperone, HEK293T membranes; settings: DRD2; [3H]-methylspiperone (0.8-1.0 nM); read-out: Ki
[9] = target: DRD2 F1103.28A (Homo sapiens, UniProt P14416, F110A); format: binding; design: expressed in transfected cells; host or cells: HEK293T (ATCC CRL-11268); settings: DRD2 F1103.28A
Sequence of DRD2 F1103.28A (P14416 whole entry F110A): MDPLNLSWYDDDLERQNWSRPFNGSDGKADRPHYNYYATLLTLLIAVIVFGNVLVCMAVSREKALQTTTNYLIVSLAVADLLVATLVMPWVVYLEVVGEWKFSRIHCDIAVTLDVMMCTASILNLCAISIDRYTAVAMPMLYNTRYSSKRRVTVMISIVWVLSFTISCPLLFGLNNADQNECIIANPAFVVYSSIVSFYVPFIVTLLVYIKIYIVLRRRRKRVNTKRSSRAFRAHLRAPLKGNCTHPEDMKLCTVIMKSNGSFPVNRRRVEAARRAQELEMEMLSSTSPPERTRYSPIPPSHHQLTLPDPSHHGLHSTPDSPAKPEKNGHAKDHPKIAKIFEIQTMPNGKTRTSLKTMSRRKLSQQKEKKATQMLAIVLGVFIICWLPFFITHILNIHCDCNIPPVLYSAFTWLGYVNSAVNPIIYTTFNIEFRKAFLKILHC

T3 sequence (P14416 whole entry): as the sequence (P14416 whole entry F110A) above, with A110F counted along it
Sequence of DRD3 wild-type (P35462 whole entry): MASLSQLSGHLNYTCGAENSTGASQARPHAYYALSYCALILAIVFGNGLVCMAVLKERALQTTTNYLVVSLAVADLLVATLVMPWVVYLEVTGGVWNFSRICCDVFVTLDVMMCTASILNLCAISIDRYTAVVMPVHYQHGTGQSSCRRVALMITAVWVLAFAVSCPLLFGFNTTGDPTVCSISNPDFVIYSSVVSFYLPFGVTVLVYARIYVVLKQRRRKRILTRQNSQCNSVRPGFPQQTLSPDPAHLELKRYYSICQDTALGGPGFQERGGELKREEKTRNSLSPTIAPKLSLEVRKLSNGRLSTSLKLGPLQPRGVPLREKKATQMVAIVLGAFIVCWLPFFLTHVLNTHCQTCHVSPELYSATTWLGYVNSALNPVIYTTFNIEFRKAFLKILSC
Sequence of DRD3 (P35462 whole entry): as above
Sequence of DRD2 (D2 long receptor) wild-type (P14416 whole entry): as the sequence (P14416 whole entry F110A) above, with A110F counted along it

Ki [1]: > 10 µM | EC50 [2]: > 10 µM | EC50 ([3]; DRD2, agonist, Gαi/o-mediated cAMP inhibition, read-out: EC50 ± SEM): > 10 µM | Response, Fig_S11b dose-response ([3]; Log[Drug] -6): -4.6609 and -0.5921 | EC50 [4]: > 10 µM | EC50 [5]: > 10 µM | EC50 ([6]; DRD2, β-arrestin2 recruitment (Tango), read-out: EC50 ± SEM): > 10 µM | Response, Fig_S11c dose-response ([6]; Log[Drug] -6.52): 3.717 | Ki ([7]; DRD3, [3H]-methylspiperone (0.8-1.0 nM), read-out: Ki): 3.47 µM | pKi ± SEM ([7]; DRD3 wild-type): 5.46±0.10 | Ki [8]: > 10 µM | pKi ± SEM [9]: 5.24±0.17 | Ki ([9]; read-out: Ki): 5.75 µM
SMILES: CC(NCC1(O)CCCCC1)c1cc2cccc(O)c2o1.Cl (stereo not drawn) [O2LE6]
Response, Fig_S11b dose-response ([3]; Log[Drug] -5): 2.57 and -6.2065 and 9.406 and 22.878 and 21.3481 and -11.9066 and 1.916 | Response, Fig_S11b dose-response ([3]; Log[Drug] -5.52): 6.28 and 4.868 and 17.437 and 8.981 and 7.366 and 4.306 and -2.8216 and 10.8339 and 3.867 | Response, Fig_S11b dose-response ([3]; Log[Drug] -6.52): -4.5336 and 10.5534 and 15.2708 and -15.8082 and -11.6836 | Response, Fig_S11b dose-response ([3]; Log[Drug] -7): 2.459 and 17.8523 and -17.1557 and -9.0384 and -5.1068 and -4.6609 and -7.169 | Response, Fig_S11b dose-response ([3]; Log[Drug] -7.52): -18.3605 and -3.0503 and 3.567 and -20.6831 and -11.3334 and 8.381 and -20.49 | Response, Fig_S11b dose-response ([3]; Log[Drug] -8): -13.294 and 23.168 and -7.9784 and -20.598 and -10.4409 and -9.4634 and -20.4343 | Response, Fig_S11b dose-response ([3]; Log[Drug] -8.52): 0.7703 and -10.5254 and -9.1135 and 3.329 and -12.6933 and -0.7512 and -34.034 and -13.4672 and -11.5164 | Response, Fig_S11b dose-response ([3]; Log[Drug] -9): 2.182 and 8.19 and 4.563 and -3.0886 and 6.152 and -13.6902 and -0.3134 | Response, Fig_S11b dose-response ([3]; Log[Drug] -9.52): -7.1755 and -21.4059 and -24.6779 and -18.9406 and -5.1068 and 6.486 | Response, Fig_S11b dose-response ([3]; Log[Drug] -10): -19.2464 and 38.0628 and -6.9263 and -30.0753 and -2.0262 and 6.261 and -22.9424 and -9.1198 and -15.8639 | Response, Fig_S11b dose-response ([3]; Log[Drug] -10.52): -15.9241 and -8.3937 and 23.898 and 3.978 and -13.6344 | Response, Fig_S11b dose-response ([3]; Log[Drug] -11): -21.7935 and 4.314 and -22.2642 and -20.2156 and 2.7337 and -9.1755 | Response, Fig_S11b dose-response ([3]; Log[Drug] -11.52): 5.117 and 27.9022 and 12.3983 and -0.5921 and -2.4314 and -6.9461 | Response, Fig_S11b dose-response ([3]; Log[Drug] -12): 6.64 and -0.2818 and -18.9406 and 16.0358 and 13.8258 and -18.8737 and -20.713 and -0.5921 | response, Fig_S11c dose-response source data ([6]; Fig_S11c, Log[Drug] -5, replicate values): 16.7808 and 14.8237 and 14.215 and 18.5342 and 14.2817 and 15.7604 and 11.4227 and 17.086 and 21.2736 | Response, Fig_S11c dose-response ([6]; Log[Drug] -7): 2.811 and 3.15 and 4.053 and 3 and 2.812 and 3.498 and 5.616 and 3.218 and 2.5633 | Response, Fig_S11c dose-response ([6]; Log[Drug] -7.52): 2.895 and 3.102 and 3.119 and 2.48 and 2.571 and 2.809 and 3.052 and 1.009 and 2.448 | Response, Fig_S11c dose-response ([6]; Log[Drug] -8): 2.815 and 2.652 and 3.1462 and 2.523 and 2.762 and 2.623 and 2.494 and 3.6148 and 1.539 | Response, Fig_S11c dose-response ([6]; Log[Drug] -8.52): 3.296 and 2.4132 and 3.209 and 2.229 and 3.453 and 2.266 and 3.066 and 1.184 and 1.383 | Response, Fig_S11c dose-response ([6]; Log[Drug] -9): 2.8445 and 2.312 and 2.494 and 3.046 and 2.174 and 2.343 and 1.927 and 6.732 and 6.534 | Response, Fig_S11c dose-response ([6]; Log[Drug] -9.52): 2.362 and 2.4976 and 2.923 and 2.359 and 2.154 and 2.345 and 3.43 and 1.364 and 3.781 | Response, Fig_S11c dose-response ([6]; Log[Drug] -10): 3.645 and 2.627 and 2.787 and 2.06 and 2.1828 and 2.292 and 2.6786 and 2.1344 and 1.378 | Response, Fig_S11c dose-response ([6]; Log[Drug] -10.52): 2.259 and 2.232 and 2.66 and 2.1982 and 2.238 and 2.169 and 4.722 and 1.378 and 2.323 | Response, Fig_S11c dose-response ([6]; Log[Drug] -11): 2.37 and 2.502 and 2.312 and 2.1828 (2×) and 2.084 and 1.9407 and 3.057 and 2.849 | Response, Fig_S11c dose-response ([6]; Log[Drug] -11.52): 2.185 and 2.208 and 2.688 and 2.5566 and 2.233 and 3.071 and 1.779 and 1.392 and 2.508 | Response, Fig_S11c dose-response ([6]; Log[Drug] -12): 2.133 and 2.211 and 2.421 and 5.046 and 2.173 and 2.317 and 0.6771 and 1.599 and 1.023
